Data set [1] deals with T1, Apoptosis regulator Bcl-2 (Homo sapiens, UniProt P10415). Description: Inhibition of biotin-linker-Beclin 1 BH3 peptide binding to human C-terminal 6His-tagged Bcl-2 (1 to 218 residues) expressed in Escherichia coli BL21 Star (DE3) pLysS measured after 3 hrs by AlphaLISA assay. In general terms: Alpha assays give light when donor and acceptor beads are brought close together.

The nature of data set [2]: Half life in ICR/CD-1 mouse liver microsomes at 2 uM preincubated for 5 mins followed by NADPH regenerating system addition by LC-MS/MS analysis. The data set is classed as ADME, Microsome.
The target of data set [3] is T1, Apoptosis regulator Bcl-2. The data set can be described thus: Inhibition of biotin-linker-Bax BH3 peptide binding to human C-terminal 6His-tagged Bcl-2 (1 to 218 residues) expressed in Escherichia coli BL21 Star (DE3) pLysS measured after 3 hrs by AlphaLISA assay.

A value given as a limit tells only on which side of the number the result lay.

Broadly, the IC50 is the concentration that inhibits the measured activity by half. As a reminder, the half-life is the time in which the quantity being followed falls by half. Higher therefore signals slow loss.

T1 sequence (P10415 whole entry, the tested form may be a part): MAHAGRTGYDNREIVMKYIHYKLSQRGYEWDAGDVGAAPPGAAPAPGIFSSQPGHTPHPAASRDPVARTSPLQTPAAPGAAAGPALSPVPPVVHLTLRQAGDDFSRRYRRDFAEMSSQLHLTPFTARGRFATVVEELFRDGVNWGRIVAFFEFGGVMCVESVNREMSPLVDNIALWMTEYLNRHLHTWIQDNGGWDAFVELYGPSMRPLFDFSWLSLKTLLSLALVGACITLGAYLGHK

`CC(C)C(=O)Oc1ccc(C2=NN(C(=O)c3ccc(Br)cc3)C(c3ccccc3)C2)cc1` (racemic) gave an IC50 in data set [1] of 5450 nM. This lies in the single-digit micromolar range.

Regarding `Cc1ccc(C(=O)N2N=C(c3ccc(NS(C)(=O)=O)cc3)CC2c2ccccc2Br)cc1` (configuration not stated), the half-life at 2 µM in data set [2] was 2.9 min.

Regarding `C=CCOC(=O)Nc1ccc(C2=NN(C(=O)c3ccc(Br)cc3)C(c3ccccc3)C2)cc1` (racemic), the IC50 in data set [3] came to 8830 nM; in data set [1], 31.8 nM.

Compound `COC(=O)c1ccc(C2=NN(C(=O)c3ccc(Br)cc3)C(c3ccccc3)C2)cc1` (racemic) had a 50% inhibitory concentration (IC50) in data set [1] of 1640 nM.

`Cc1ccc(C(=O)N2N=C(c3ccc(NS(C)(=O)=O)cc3)CC2c2ccco2)cc1` (racemic): the IC50 was > 10000 nM in data set [3] and 15900 nM in data set [1]. In data set [2], this compound showed a half-life at 2 µM of 2.9 min.

`Cc1ccc(C(=O)N2N=C(c3ccc(NC(=O)OC(C)(C)C)cc3)CC2c2ccco2)cc1` (racemic) returned an IC50 in data set [1] of 3290 nM.

In data set [1], `CC(C)(C)OC(=O)Nc1ccc(C2=NN(C(=O)c3ccc(Br)cc3)C(c3ccncc3)C2)cc1` (racemic) had an IC50 of 2780 nM.

Take `C#CCCOC(=O)Nc1ccc(C2=NN(C(=O)c3ccc(Br)cc3)C(c3ccccc3)C2)cc1` (racemic): in data set [1], the concentration for half-maximal inhibition (IC50) worked out at 65 nM.

Consider `CC(C)(C)OC(=O)Nc1ccc(C2=NN(C(=O)c3ccc(Br)cc3)C(c3ccco3)C2)cc1` (racemic), for which the 50% inhibitory concentration (IC50) in data set [1] turned out to be 1260 nM. This IC50 lies about 19-fold higher than the previous one.

For the compound `CS(=O)(=O)Nc1ccc(C2=NN(C(=O)c3ccc([N+](=O)[O-])cc3)C(c3ccco3)C2)cc1` (racemic), the half-life at 2 µM in data set [2] came to 2.9 min. Also, the IC50 in data set [1] is 1970 nM.

For `CC(C)OC(=O)c1ccc(C2=NN(C(=O)c3ccc(Br)cc3)C(c3ccccc3)C2)cc1` (racemic), the values for the concentration for half-maximal inhibition (IC50) in data set [3] and in data set [1] were 4360 nM and 110 nM, respectively.

The compound `CC1C(c2ccc(NC(=O)OC(C)(C)C)cc2)=NN(C(=O)c2ccc(Br)cc2)C1c1ccccc1` (racemic) gave an IC50 in data set [1] of 27.4 nM.

`COc1ccc(C(=O)N2N=C(c3ccc(NS(C)(=O)=O)cc3)CC2c2ccco2)cc1` (racemic) returned an IC50 in data set [1] of 10100 nM.

The compound `CC(C)(C)OC(=O)Nc1ccc(C2=NN(C(=O)c3ccc(Br)cc3)C(c3ccccc3)C2)cn1` (racemic) returned an IC50 in data set [1] of 309 nM.

Regarding `CS(=O)(=O)Nc1ccc(C2=NN(C(=O)c3ccc(F)cc3)C(c3ccco3)C2)cc1` (racemic), in data set [1], the IC50 stood at 12700 nM.

In the case of `CC(C)(C)OC(=O)Nc1ccc(C2=NN(C(=O)c3ccc(Br)cc3)C(c3ccccn3)C2)cc1` (racemic), the IC50 in data set [1] came to 650 nM.

For the compound `CC(C)(C)OC(=O)Nc1ccc(C2=NN(C(=O)c3ccc([N+](=O)[O-])cc3)C(c3ccccc3)C2)cc1` (racemic), the half-life at 2 µM in data set [2] is 120 min. Besides, the IC50 in data set [1] was determined as 439 nM.

As for `CC(C)OC(=O)Nc1ccc(C2=NN(C(=O)c3ccc(Br)cc3)C(c3ccccc3)C2C)cn1` (racemic), the IC50 turned out to be 157 nM in data set [3] and 2 nM in data set [1].

`CC(C)(C)OC(=O)Nc1cccc(C2=NN(C(=O)c3ccc(Br)cc3)C(c3ccccc3)C2)c1` (racemic) yielded a concentration for half-maximal inhibition (IC50) in data set [1] of 11100 nM.

`CN(C)C(=O)c1ccc(C2=NN(C(=O)c3ccc(Br)cc3)C(c3ccccc3)C2)cc1` (racemic) came in with an IC50 in data set [1] of 5910 nM.

For the compound `O=C(Nc1ccc(C2=NN(C(=O)c3ccc(Br)cc3)C(c3ccccc3)C2)cc1)OC1CC1` (racemic), the IC50 in data set [3] stood at 15100 nM; in data set [1], 44.1 nM.

In data set [1], `CC(C)(C)OC(=O)Nc1ccc(C2=NN(C(=O)c3ccc(Br)cc3)C(c3nccs3)C2)cc1` (racemic) came in with an IC50 of 1610 nM.

With `CC(C)(C)NC(=O)Nc1ccc(C2=NN(C(=O)c3ccc(Br)cc3)C(c3ccccc3)C2)cc1` (racemic), the 50% inhibitory concentration (IC50) in data set [1] was 9220 nM.

`CC(C)(C)OC(=O)Nc1ccc(C2=NN(C(=O)c3ccc(Br)cc3)C(c3ccccc3)C2)nc1` (racemic) gave an IC50 in data set [1] of 372 nM.

Consider `CCOC(=O)Nc1ccc(C2=NN(C(=O)c3ccc(Br)cc3)C(c3ccccc3)C2)cc1` (racemic), for which the figures for the concentration for half-maximal inhibition (IC50) in data set [3] and in data set [1] were 6620 nM and 32.8 nM, respectively.

In data set [2], `CS(=O)(=O)Nc1ccc(C2=NN(C(=O)c3ccc(Br)cc3)C(c3ccco3)C2)cc1` (racemic) had a half-life at 2 µM of 2.9 min. The IC50 in data set [1] was determined as 2470 nM.

For `CS(=O)(=O)Nc1ccc(C2=NN(C(=O)c3ccc(C#N)cc3)C(c3ccco3)C2)cc1` (racemic), the IC50 in data set [1] is 7440 nM.

In turn, `CC(C)(C)OC(=O)Nc1ccc(C2=NN(C(=O)c3ccc(Br)cc3)C(c3ccccc3)C2)cc1` (racemic) gave a half-life at 2 µM in data set [2] of 120 min. In addition, the IC50 in data set [1] turned out to be 262 nM.

The compound `CC(C)(C)OC(=O)Nc1ccc(C2=NN(C(=O)c3cccnc3)C(c3ccccc3)C2)cc1` (racemic) had a half-maximal inhibitory concentration (IC50) in data set [1] of 14500 nM.

In the case of `CC(C)(C)OC(=O)Nc1ccc(C2=NN(C(=O)c3ccc(Br)cc3)C(c3cccnc3)C2)cc1` (racemic), in data set [1], the concentration for half-maximal inhibition (IC50) was found to be 1630 nM.

As to `CC(C)(C)OC(=O)Nc1ccc(C2=NN(C(=O)c3ccc(Br)cc3)C(c3ccoc3)C2)cc1` (racemic), the IC50 in data set [1] was 3820 nM.

In data set [1], `CC(C)(C)OC(=O)Nc1ccc(C2=NN(C(=O)c3ccc(Br)cc3)C(c3ccccc3)C2c2ccccc2)cc1` (racemic) showed an IC50 of 172 nM.

As to `CS(=O)(=O)Nc1ccc(C2=NN(C(=O)c3ccc(Cl)cc3)C(c3ccco3)C2)cc1` (racemic), the IC50 in data set [1] was determined as 2720 nM.

Regarding `CS(=O)(=O)Nc1ccc(C2=NN(C(=O)c3ccc(C(F)(F)F)cc3)C(c3ccco3)C2)cc1` (racemic), the half-life at 2 µM in data set [2] is 2.9 min. In data set [1], this compound displayed a 50% inhibitory concentration (IC50) of 2880 nM.

Take `CC(C)OC(=O)Nc1ccc(C2=NN(C(=O)c3ccc(Br)cc3)C(c3ccccc3)C2)cc1` (racemic): the 50% inhibitory concentration (IC50) in data set [3] stood at 881 nM; in data set [1], 4.4 nM. In data set [2], the half-life at 2 µM came out at 120 min.

For the compound `CC(C)(C)OC(=O)Nc1ccc(C2=NN(C(=O)c3ccc(Br)cc3)C(c3cncs3)C2)cc1` (racemic), the 50% inhibitory concentration (IC50) in data set [1] worked out at 4360 nM. In other words, the single-digit micromolar range.

In data set [1], `CC(C)COC(=O)Nc1ccc(C2=NN(C(=O)c3ccc(Br)cc3)C(c3ccccc3)C2)cc1` (racemic) displayed a concentration for half-maximal inhibition (IC50) of 164 nM.

For the compound `COC(=O)Nc1ccc(C2=NN(C(=O)c3ccc(Br)cc3)C(c3ccccc3)C2)cc1` (racemic), the half-inhibitory concentration (IC50) in data set [1] turned out to be 2100 nM.

These data come from ChEMBL document CHEMBL5143754, “Novel Bcl-2 Inhibitors Selectively Disrupt the Autophagy-Specific Bcl-2-Beclin 1 Protein-Protein Interaction” (ACS Med Chem Lett, 2022).
